≈ marks a conversion by molar mass, not a printed value. Read-outs that look alike come from different tables or passages of the source.
Tests used:
Type in all cases: cell-based
[1] = system: Staphylococcus aureus ATCC 29213; assay: MIC by microbroth dilution, S. aureus
Excerpt: (§1) Methods for dilution antimicrobial susceptibility tests for bacteria that grow aerobically, 5th ed. M7-A5. National Committee for Clinical Laboratory Standards, Wayne, Pa.).

[2] = system: Helicobacter pylori ATCC 700392; assay: MIC by agar dilution, H. pylori
Excerpt: as §1

[3] = system: Helicobacter pylori CB1572 (Rif-resistant, rpoB L525I, D530N); assay: microbe, parasite or virus in culture; conditions: read-out: MIC H. pylori CB1572 (Rif-resistant)
Excerpt: as §1

[4] = system: Haemophilus influenzae ATCC 10211; assay: MIC by microbroth dilution, H. influenzae
Excerpt: as §1

[5] = system: Escherichia coli ATCC 25922; assay: MIC by microbroth dilution, E. coli
Excerpt: as §1

[6] = system: Clostridium difficile CB-1620; assay: MIC, C. difficile; conditions: Clostridioides difficile, CB1620
[7] = system: Bacteroides fragilis CB-1621; assay: MIC, B. fragilis; conditions: CB1621
[8] = system: Mycobacterium tuberculosis H37Rv; assay: MIC, M. tuberculosis
[9] = ATCC29213, read-out: MIC S. aureus ATCC# 29213
[10] = ATCC700392, read-out: MIC H. pylori ATCC# 700392
[11] = ATCC25922, read-out: MIC E. coli ATCC# 25922

SMILES	MIC [1, 9] [µg/mL]	MIC [2, 10] [µg/mL]	MIC [3] [µg/mL]	MIC ([1]; ATCC29213, microbroth dilution, read-out: MIC S. aureus ATCC# 29213) [µg/mL]	MIC ([4]; ATCC10211, microbroth dilution, read-out: MIC H. influenzae ATCC# 10211) [µg/mL]	MIC ([5]; ATCC25922, microbroth dilution, read-out: MIC E. coli ATCC# 25922) [µg/mL]	MIC ([2]; ATCC700392, agar dilution, read-out: MIC H. pylori ATCC# 700392) [µg/mL]	MIC [6] [µg/mL]	MIC [7] [µg/mL]	MIC [5, 11] [µg/mL]	MIC ([4]; ATCC10211, read-out: MIC H. influenzae ATCC# 10211) [µg/mL]	MIC [8] [µg/mL]
CO[C@H]1/C=C/O[C@@]2(C)Oc3c(C)c(O)c4c(O)c(c(/C=N/N5CCN(CCn6c([N+](=O)[O-])cnc6C)CC5)c(O)c4c3C2=O)NC(=O)/C(C)=C\C=C\[C@H](C)[C@H](O)[C@@H](C)[C@@H](O)[C@@H](C)[C@H](OC(C)=O)[C@@H]1C [Example 3, 3-[[[4-[2-(2-methyl-5-nitro-imidazol-1-yl)ethyl]-1-piperazinyl]imino]methyl]rifamycin SV]	0.03 (≈ 0.0312 µM)	0.5 (≈ 0.52 µM)	2 (≈ 2.08 µM)	–	–	–	–	–	–	–	–	–
CO[C@H]1/C=C/O[C@@]2(C)Oc3c(C)c(O)c4c(O)c(c(/C=N/N5CCN(C)CC5)c(O)c4c3C2=O)NC(=O)/C(C)=C\C=C\[C@H](C)[C@H](O)[C@@H](C)[C@@H](O)[C@@H](C)[C@H](OC(C)=O)[C@@H]1C [rifampin, reference compound]	–	–	> 32	0.008 (≈ 0.00972 µM)	0.24 (≈ 0.292 µM)	8 (≈ 9.72 µM)	0.12 (≈ 0.146 µM)	0.001 (≈ 0.00122 µM)	0.06 (≈ 0.0729 µM)	–	–	–
CO[C@H]1/C=C/O[C@@]2(C)Oc3c(C)c(O)c4c(=O)c(c5oc6cc(N7CCN(CCn8c([N+](=O)[O-])cnc8C)CC7)cc(O)c6nc-5c4c3C2=O)NC(=O)/C(C)=C\C=C\[C@H](C)[C@H](O)[C@@H](C)[C@@H](O)[C@@H](C)[C@H](OC(C)=O)[C@@H]1C [Example 4, 3′-Hydroxy-5′-[4-[2-(2-methyl-5-nitro-imidazol-1-yl)ethyl]-1-piperazinyl]benzoxazinorifamycin]	< 0.004	≤ 0.03	1 (≈ 0.963 µM)	–	–	–	–	–	–	> 8	–	–
CO[C@H]1/C=C/O[C@@]2(C)Oc3c(C)c(O)c4c(c3C2=O)C2=NC3(CCN(CCn5c([N+](=O)[O-])cnc5C)CC3)NC2=C(NC(=O)/C(C)=C\C=C\[C@H](C)[C@H](O)[C@@H](C)[C@@H](O)[C@@H](C)[C@H](OC(C)=O)[C@@H]1C)C4=O [Example 1, 4-Deoxy-3,4-[2-spiro-[1-[2-(2-methyl-5-nitro-imidazol-1-yl)ethyl]-piperidin-4-yl]]-(1H)-imidazo-(2,5-dihydro)rifamycin S]	0.03 (≈ 0.0318 µM)	≤ 0.03	0.5 (≈ 0.53 µM)	–	–	–	–	0.00025 (≈ 0.000265 µM)	0.03 (≈ 0.0318 µM)	16 (≈ 16.9 µM)	1 (≈ 1.06 µM)	0.016 (≈ 0.0169 µM)

From patent US7678791B2, “Nitroheteroaryl-containing rifamycin derivatives” (Cumbre IP Ventures, L.P., priority 2006, dated 2010)
